# According to patent EP4603105A1, “PHARMACEUTICAL COMPOSITION CONTAINING CYCLIC COMPOUND HAVING SELECTIVE KRAS INHIBITORY EFFECT AGAINST HRAS AND NRAS” (CHUGAI SEIYAKU KABUSHIKI KAISHA, priority 2022, dated 2024):
# Legend:
# [1] = molecular target: GDP-bound NRAS wild-type protein (Homo sapiens, UniProt P01111); test: Binding to NRAS by surface plasmon resonance (SPR), KD and KD ratio to KRAS; settings: ratio of the KD value with respect to GDP-bound NRAS wild-type protein to the KD value with respect to KRAS
# GDP-bound NRAS wild-type protein, sequence (P01111 whole entry): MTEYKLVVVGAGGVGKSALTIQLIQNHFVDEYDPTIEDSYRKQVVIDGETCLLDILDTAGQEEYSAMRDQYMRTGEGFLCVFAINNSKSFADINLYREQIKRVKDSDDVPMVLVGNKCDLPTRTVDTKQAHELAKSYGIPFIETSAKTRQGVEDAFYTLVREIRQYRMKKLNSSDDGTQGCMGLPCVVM
# Outline: (§1)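 Single-cycle kinetics on GDP-loaded biotin-Avi RAS captured to ~100–300 RU; 75 s ascending injections, 100 µL/min, 30°C. HBS pH 7.4 + 10 mM MgCl2/10 µM GDP/4% DMSO. 1:1 fit, KD.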
# [2] = tested on: human lung cancer strain NCI-H441; type: cell-based
# Outline: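 Proliferation was scored by […] measured after the reagent was added to cultures kept at 37°C in 5% carbon dioxide.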
# HRAS wild-type protein = HRAS wild-type protein (Homo sapiens, UniProt P01112); test: Binding to HRAS by surface plasmon resonance (SPR), KD and KD ratio to KRAS; settings: ratio of the KD value with respect to HRAS wild-type protein to the KD value with respect to KRAS
# HRAS wild-type protein, sequence (P01112 whole entry): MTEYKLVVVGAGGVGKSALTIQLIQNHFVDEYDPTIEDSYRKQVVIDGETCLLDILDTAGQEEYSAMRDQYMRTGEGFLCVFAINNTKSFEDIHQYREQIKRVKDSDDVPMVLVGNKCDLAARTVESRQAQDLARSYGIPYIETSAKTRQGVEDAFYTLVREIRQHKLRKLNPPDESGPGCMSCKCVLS
# Outline: as §1
Compound,NRAS /KRAS [1],IC50 [2],HRAS /KRAS (HRAS wild-type protein)
CCCN(C)C(=O)[C@@H]1CC(=O)N(C)[C@@H](COCC)C(=O)N[C@@H]([C@@H](C)CC)C(=O)N(C)CC(=O)N(C)[C@H]2C/C=C\CCN(C2=O)[C@@H](Cc2ccc(C(F)(F)F)cc2)C(=O)N(C)CC(=O)N[C@@H](CCc2cc(F)c(C(F)(F)F)c(F)c2)C(=O)N2C[C@@H](C)C[C@H]2C(=O)NC2(CC(C)(C)C2)C(=O)N(C)[C@@H](C2CCCC2)C(=O)N1C [PP2041],A (a compound having 10 or more and less than 20 is denoted as A),7.7 nM,A (a compound having 10 or more and less than 20 is denoted as A)
CCOC[C@H]1C(=O)N[C@@H]([C@@H](C)CC)C(=O)N(C)CC(=O)N(C)[C@H]2C/C=C\CCN(C2=O)[C@@H](Cc2ccc(C(F)(F)F)cc2)C(=O)N(C)CC(=O)N[C@@H](CCc2cc(F)c(C(F)(F)F)c(F)c2)C(=O)N2C[C@@H](C)C[C@H]2C(=O)NC2(CC(C)(C)C2)C(=O)N(C)[C@@H](C2CCCC2)C(=O)N(C)[C@H](C(=O)N(C)CC)CC(=O)N1C [PP2042],A (a compound having 10 or more and less than 20 is denoted as A),5.9 nM,A (a compound having 10 or more and less than 20 is denoted as A)
CCCOC[C@H]1C(=O)N[C@@H]([C@@H](C)CC)C(=O)N(C)CC(=O)N(C)[C@H]2C/C=C\CCN(C2=O)[C@@H](Cc2ccc(C(F)(F)F)cc2)C(=O)N(C)CC(=O)N[C@@H](CCc2cc(F)c(C(F)(F)F)c(F)c2)C(=O)N2C[C@@H](C)C[C@H]2C(=O)NC2(CC(C)(C)C2)C(=O)N(C)[C@@H](C2CCCC2)C(=O)N(C)[C@H](C(=O)N(C)CC)CC(=O)N1C [PP2043],A (a compound having 10 or more and less than 20 is denoted as A),28 nM,A (a compound having 10 or more and less than 20 is denoted as A)
CCO[C@@H]1C[C@H]2C(=O)NC3(CC(C)(C)C3)C(=O)N(C)[C@@H](C3CCCC3)C(=O)N(C)[C@H](C(=O)N(C)CC)CC(=O)N(C)[C@@H](CC(C)C)C(=O)N[C@@H]([C@@H](C)CC)C(=O)N(C)CC(=O)N(C)[C@H]3C/C=C\CCN(C3=O)[C@@H](Cc3ccc(C(F)F)cc3)C(=O)N(C)CC(=O)N[C@@H](CCc3cc(F)c(C(F)(F)F)c(F)c3)C(=O)N2C1 [PP2046],A (a compound having 10 or more and less than 20 is denoted as A),2.2 nM,A (a compound having 10 or more and less than 20 is denoted as A)
CCO[C@@H]1C[C@H]2C(=O)NC3(CC(C)(C)C3)C(=O)N(C)[C@@H](C3CCCC3)C(=O)N(C)[C@H](C(=O)N(C)C)CC(=O)N(C)[C@@H](CC)C(=O)N[C@@H]([C@@H](C)CC)C(=O)N(C)CC(=O)N(C)[C@H]3C/C=C\CCN(C3=O)[C@@H](Cc3ccc(Cl)cc3F)C(=O)N(C)CC(=O)N[C@@H](CCc3cc(F)c(C(F)(F)F)c(F)c3)C(=O)N2C1 [PP2048],A (a compound having 10 or more and less than 20 is denoted as A),3.6 nM,B (a compound having 3 or more and less than 10 is denoted as B)
CCO[C@@H]1C[C@H]2C(=O)NC3(CC(C)(C)C3)C(=O)N(C)[C@@H](C3CCCC3)C(=O)N(C)[C@H](C(=O)N(C)C)CC(=O)N(C)[C@@H](CC)C(=O)N[C@@H]([C@@H](C)CC)C(=O)N(C)CC(=O)N(C)[C@H]3C/C=C\CCN(C3=O)[C@@H](Cc3ccc(C(F)F)cc3)C(=O)N(C)CC(=O)N[C@@H](CCc3cc(F)c(C(F)(F)F)c(F)c3)C(=O)N2C1 [PP2049],A (a compound having 10 or more and less than 20 is denoted as A),6.1 nM,B (a compound having 3 or more and less than 10 is denoted as B)
C=CCN1CC(=O)N(C)[C@H]2C/C=C\CCN(C2=O)[C@@H](Cc2ccc(C)cc2)C(=O)N(C)CC(=O)N[C@@H](CCc2cc(F)c(C(F)(F)F)c(F)c2)C(=O)N2C[C@H](OCC)C[C@H]2C(=O)NC2(CC(C)(C)C2)C(=O)N(C)[C@@H](C2CCCC2)C(=O)N(C)[C@H](C(=O)N(C)C)CC(=O)N(C)[C@@H](CC(C)C)C(=O)N[C@@H]([C@@H](C)CC)C1=O [PP2050],A (a compound having 10 or more and less than 20 is denoted as A),7.5 nM,A (a compound having 10 or more and less than 20 is denoted as A)
C#CC[C@H]1C(=O)N[C@@H]([C@@H](C)CC)C(=O)N(C)CC(=O)N(C)[C@H]2C/C=C\CCN(C2=O)[C@@H](Cc2ccc(C(F)(F)F)cc2)C(=O)N(C)CC(=O)N[C@@H](CCc2ccc(C(F)(F)F)c(OC)c2)C(=O)N2C[C@H](OCC)C[C@H]2C(=O)NC2(CC(C)(C)C2)C(=O)N(C)[C@@H](C2CCCC2)C(=O)N(C)[C@H](C(=O)N(C)CC)CC(=O)N1C [PP2051],A (a compound having 10 or more and less than 20 is denoted as A),6.9 nM,A (a compound having 10 or more and less than 20 is denoted as A)
C#CCN1CC(=O)N(C)[C@H]2C/C=C\CCN(C2=O)[C@@H](Cc2ccc(C)cc2)C(=O)N(C)CC(=O)N[C@@H](CCc2cc(F)c(C(F)(F)F)c(F)c2)C(=O)N2C[C@H](OCC)C[C@H]2C(=O)NC2(CC(C)(C)C2)C(=O)N(C)[C@@H](C2CCCC2)C(=O)N(C)[C@H](C(=O)N(C)C)CC(=O)N(C)[C@@H](CC(C)C)C(=O)N[C@@H]([C@@H](C)CC)C1=O [PP2052],A (a compound having 10 or more and less than 20 is denoted as A),4.1 nM,A (a compound having 10 or more and less than 20 is denoted as A)
C#CC[C@H]1C(=O)N[C@@H]([C@@H](C)CC)C(=O)N(C)CC(=O)N(C)[C@H]2C/C=C\CCN(C2=O)[C@@H](Cc2ccc(C(F)(F)F)cc2)C(=O)N(C)CC(=O)N[C@@H](CCc2ccc(C(F)(F)F)c(OC)c2)C(=O)N2C[C@H](OCC)C[C@H]2C(=O)NC2(CC(C)(C)C2)C(=O)N(C)[C@@H](C2CCCC2)C(=O)N(C)[C@H](C(=O)N(C)CCC)CC(=O)N1C [PP2053],A (a compound having 10 or more and less than 20 is denoted as A),9.3 nM,A (a compound having 10 or more and less than 20 is denoted as A)
C#CC[C@H]1C(=O)N[C@@H]([C@@H](C)CC)C(=O)N(C)CC(=O)N(C)[C@H]2C/C=C\CCN(C2=O)[C@@H](Cc2ccc(C(F)(F)F)cc2)C(=O)N(C)CC(=O)N[C@@H](CCc2ccc(C(F)(F)F)c(OC)c2)C(=O)N2C[C@@H](C)C[C@H]2C(=O)NC2(CC(C)(C)C2)C(=O)N(C)[C@@H](C2CCCC2)C(=O)N(C)[C@H](C(=O)N(C)CC)CC(=O)N1C [PP2055],A (a compound having 10 or more and less than 20 is denoted as A),16.1 nM,B (a compound having 3 or more and less than 10 is denoted as B)
C#CC[C@H]1C(=O)N[C@@H]([C@@H](C)CC)C(=O)N(C)CC(=O)N(C)[C@H]2C/C=C\CCN(C2=O)[C@@H](Cc2ccc(C(F)(F)F)cc2)C(=O)N(C)CC(=O)N[C@@H](CCc2ccc(C(F)(F)F)c(OC)c2)C(=O)N2C[C@H](OCC)C[C@H]2C(=O)NC2(CCC2)C(=O)N(C)[C@@H](C2CCCC2)C(=O)N(C)[C@H](C(=O)N(C)CCC)CC(=O)N1C [PP2059],A (a compound having 10 or more and less than 20 is denoted as A),4.9 nM,A (a compound having 10 or more and less than 20 is denoted as A)
C#CC[C@H]1C(=O)N[C@@H]([C@@H](C)CC)C(=O)N(C)CC(=O)N(C)[C@H]2C/C=C\CCN(C2=O)[C@@H](Cc2ccc(C(F)(F)F)cc2)C(=O)N(C)CC(=O)N[C@@H](CCc2ccc(C(F)(F)F)c(OC)c2)C(=O)N2C[C@@H](C)C[C@H]2C(=O)NC2(CCC2)C(=O)N(C)[C@@H](C2CCCC2)C(=O)N(C)[C@H](C(=O)N(C)CC)CC(=O)N1C [PP2061],AA (a compound having 20 or more is denoted as AA),6.1 nM,A (a compound having 10 or more and less than 20 is denoted as A)
CCO[C@@H]1C[C@H]2C(=O)NC3(CC(C)(C)C3)C(=O)N(C)[C@@H](C(CC)CC)C(=O)N(C)[C@H](C(=O)N(C)C)CC(=O)N(C)[C@@H](CC)C(=O)N[C@@H]([C@@H](C)CC)C(=O)N(C)CC(=O)N(C)[C@H]3C/C=C\CCN(C3=O)[C@@H](Cc3ccc(C(F)(F)F)cc3)C(=O)N(C)CC(=O)N[C@@H](CCc3cc(F)c(C(F)(F)F)c(F)c3)C(=O)N2C1 [PP2062],AA (a compound having 20 or more is denoted as AA),13.7 nM,A (a compound having 10 or more and less than 20 is denoted as A)
CC[C@H](C)[C@@H]1NC(=O)[C@H](C(C)C)N(C)C(=O)C[C@@H](C(=O)N(C)CC)N(C)C(=O)[C@H](C2CCCC2)N(C)C(=O)C2(CCC2)NC(=O)[C@@H]2C[C@H](C)CN2C(=O)[C@H](CCc2ccc(C(F)(F)F)c(OC)c2)NC(=O)CN(C)C(=O)[C@H](Cc2ccc(C(F)(F)F)cc2)N2CC/C=C\C[C@@H](C2=O)N(C)C(=O)CN(C)C1=O [PP2065],A (a compound having 10 or more and less than 20 is denoted as A),17 nM,B (a compound having 3 or more and less than 10 is denoted as B)
CCO[C@@H]1C[C@H]2C(=O)NC3(CC(C)(C)C3)C(=O)N(C)[C@@H](C(CC)CC)C(=O)N(C)[C@H](C(=O)N(C)C)CC(=O)N(C)[C@@H](CC)C(=O)N[C@@H]([C@@H](C)CC)C(=O)N(C)CC(=O)N(C)[C@H]3C/C=C\CCN(C3=O)[C@@H](Cc3ccc(C(F)(F)F)cc3)C(=O)N(C)CC(=O)N[C@@H](CCc3ccc(C(F)(F)F)c(OC)c3)C(=O)N2C1 [PP2066],A (a compound having 10 or more and less than 20 is denoted as A),3.2 nM,B (a compound having 3 or more and less than 10 is denoted as B)
